Measurements reported in ChEMBL document CHEMBL4325896, “The potential role of tubeimosides in cancer prevention and treatment” (Eur J Med Chem, 2019).
Converted amounts (≈) assume the structure as drawn.

Assays:
[1] = test system: HepG2; assay: Antiproliferative activity against human HepG2 cells; assay type: functional, cell-based
[2] = Toxicity in ip dosed ICR mouse; assay type: organism-based; conditions: in vivo
[3] = test system: NCI-H460; assay: Antiproliferative activity against human NCI-H460 cells after 24 hrs by WST-1 assay; assay type: functional, cell-based; conditions: NCI-H460, 24 h
[4] = Antiproliferative activity against mouse eEND.2 cells after 24 hrs by WST-1 assay; assay type: cell-based
[5] = Elimination half life in Sprague-Dawley rat at 5 mg/kg, iv by LC-MS analysis; assay type: ADME, organism-based; conditions: in vivo
[6] = Volume of distribution at terminal phase in Sprague-Dawley rat at 5 mg/kg, iv by LC-MS analysis; assay type: ADME, organism-based; conditions: in vivo
[7] = Oral bioavailability in Sprague-Dawley rat at 50 mg/kg by LC-MS analysis; assay type: ADME, organism-based; conditions: in vivo
[8] = Cmax in Sprague-Dawley rat at 50 mg/kg, po by LC-MS analysis; assay type: ADME, organism-based; set-up: dose 50 mg/kg, route oral; conditions: in vivo
[9] = Tmax in Sprague-Dawley rat at 50 mg/kg, po by LC-MS analysis; assay type: ADME, organism-based; conditions: in vivo
[10] = Cmax in Sprague-Dawley rat at 50 mg/kg, po by HPLC-DAD-IT-TOF-MS analysis; assay type: ADME, organism-based; set-up: dose 50 mg/kg, route oral; conditions: in vivo
[11] = Tmax in Sprague-Dawley rat at 50 mg/kg, po by HPLC-DAD-IT-TOF-MS analysis; assay type: ADME, organism-based; conditions: in vivo
[12] = Half life in Sprague-Dawley rat at 50 mg/kg, po by HPLC-DAD-IT-TOF-MS analysis; assay type: ADME, organism-based; conditions: in vivo
[13] = AUC (0 to 24 hrs) in Sprague-Dawley rat at 50 mg/kg, po by HPLC-DAD-IT-TOF-MS analysis; assay type: ADME, organism-based; set-up: dose 50 mg/kg, time < 24 hr, route oral; conditions: in vivo
[14] = AUC (0 to infinity) in Sprague-Dawley rat at 50 mg/kg, po by HPLC-DAD-IT-TOF-MS analysis; assay type: ADME, organism-based; set-up: dose 50 mg/kg, time infinity, route oral; conditions: in vivo
[15] = MRT (0 to 24 hrs) in Sprague-Dawley rat at 50 mg/kg, po by HPLC-DAD-IT-TOF-MS analysis; assay type: ADME, organism-based; conditions: in vivo
[16] = MRT (0 to infinity) in Sprague-Dawley rat at 50 mg/kg, po by HPLC-DAD-IT-TOF-MS analysis; assay type: ADME, organism-based; conditions: in vivo
[17] = Elimination half life in ICR mouse at 20 mg/kg, po by UPLC-MS/MS analysis; assay type: ADME, organism-based; conditions: in vivo, read-out: beta t1/2 (converted)
[18] = Elimination half life in ICR mouse at 5 mg/kg, iv by UPLC-MS/MS analysis; assay type: ADME, organism-based; conditions: in vivo, read-out: beta t1/2 (converted)
[19] = Oral bioavailability in ICR mouse at 20 mg/kg by UPLC-MS/MS analysis; assay type: ADME, organism-based; conditions: in vivo
[20] = test system: DU-145; assay: Antiproliferative activity against human DU145 cells after 24 hrs by MTT assay; assay type: functional, cell-based; conditions: DU-145, 24 h
[21] = test system: PC-3; assay: Antiproliferative activity against human PC3 cells after 24 hrs by MTT assay; assay type: functional, cell-based; conditions: PC-3, 24 h
[22] = test system: HeLa; assay: Cytotoxicity against human HeLa cells after 24 hrs by MTT assay; assay type: functional, cell-based
[23] = test system: NCI-H460; assay: Antiproliferative activity against human NCI-H460 cells after 9 hrs by MTT assay; assay type: functional, cell-based; conditions: NCI-H460, 9 h
[24] = test system: A549; assay: Antiproliferative activity against human A549 cells after 72 hrs by MTS assay; assay type: functional, cell-based; conditions: A549, 72 h
[25] = test system: PC-9; assay: Antiproliferative activity against human PC9 cells after 72 hrs by MTS assay; assay type: functional, cell-based; conditions: PC-9, 72 h
[26] = Antiproliferative activity against human PGCL3 cells after 24 hrs by MTT assay; assay type: functional, cell-based
[27] = Antiproliferative activity against human PGCL3 cells after 48 hrs by MTT assay; assay type: functional, cell-based
[28] = Antiproliferative activity against human PGCL3 cells after 72 hrs by MTT assay; assay type: functional, cell-based
[29] = test system: HeLa; assay: Antiproliferative activity against human HeLa cells after 24 hrs by MTT assay; assay type: functional, cell-based
[30] = test system: HeLa; assay: Antiproliferative activity against human HeLa cells after 48 hrs by MTT assay; assay type: functional, cell-based
[31] = test system: HeLa; assay: Antiproliferative activity against human HeLa cells after 72 hrs by MTT assay; assay type: functional, cell-based
[32] = test system: HepG2; assay: Antiproliferative activity against human HepG2 cells after 24 hrs by MTT assay; assay type: functional, cell-based; conditions: HepG2, 24 h
[33] = test system: SK-OV-3; assay: Antiproliferative activity against human SKOV3 cells after 24 hrs by MTT assay; assay type: functional, cell-based; conditions: SK-OV-3, 24 h
[34] = test system: T-24; assay: Antiproliferative activity against human T24 cells after 24 hrs by MTT assay; assay type: functional, cell-based; conditions: T-24, 24 h
[35] = test system: ECa-109 cell line; assay: Antiproliferative activity against human EC109 cells after 24 hrs by MTT assay; assay type: functional, cell-based; conditions: ECa-109, 24 h
[36] = test system: ECa-109 cell line; assay: Antiproliferative activity against human EC109 cells after 48 hrs by MTT assay; assay type: functional, cell-based; conditions: ECa-109, 48 h
[37] = test system: JEG-3; assay: Antiproliferative activity against human JEG3 cells after 24 hrs by MTT assay; assay type: functional, cell-based; conditions: JEG-3, 24 h
[38] = test system: HUVEC; assay: Antiproliferative activity against HUVEC after 24 hrs; assay type: functional, cell-based; conditions: Homo sapiens
[39] = test system: HUVEC; assay: Antiproliferative activity against HUVEC after 48 hrs; assay type: functional, cell-based; conditions: Homo sapiens
[40] = test system: HUVEC; assay: Antiproliferative activity against HUVEC after 72 hrs; assay type: functional, cell-based; conditions: Homo sapiens
[41] = test system: NCI-H1299; assay: Antiproliferative activity against human NCI-H1299 cells after 48 hrs by CCK-8 assay; assay type: functional, cell-based; conditions: NCI-H1299, 48 h
[42] = Antiproliferative activity against human A2780DDP cells after 12 hrs; assay type: functional, cell-based
[43] = Antiproliferative activity against human A2780DDP cells after 24 hrs; assay type: functional, cell-based
[44] = Antiproliferative activity against human A2780DDP cells after 48 hrs; assay type: functional, cell-based
[45] = test system: HUVEC; assay: Antimigratory activity against HUVEC at 20 umol/L after 24 hrs relative to control; assay type: functional, Homo sapiens

Compound: C[C@@H]1O[C@H]2O[C@H]3[C@@H](OC[C@H](O)[C@@H]3O)OC(=O)[C@]34CCC(C)(C)C[C@H]3C3=CC[C@@H]5[C@@]6(C)C[C@H](O)[C@H](O[C@@H]7O[C@H](CO)[C@@H](O)[C@H](O)[C@H]7O[C@@H]7OC[C@H](OC(=O)C[C@](C)(O)CC(=O)O[C@@H]1[C@@H](O[C@@H]1OC[C@@H](O)[C@H](O)[C@H]1O)[C@H]2O)[C@H](O)[C@H]7O)[C@@](C)(CO)[C@@H]6CC[C@@]5(C)[C@]3(C)C[C@H]4O
- IC50 [1]: 4.05 µg/mL (≈ 3.03 µM)
- LD50 [2]: 21 mg/kg

Compound: C[C@@H]1O[C@H]2O[C@H]3[C@@H](OC[C@H](O)[C@@H]3O)OC(=O)[C@]34CCC(C)(C)C[C@H]3C3=CC[C@@H]5[C@@]6(C)C[C@H](O)[C@H](O[C@@H]7O[C@H](CO)[C@@H](O)[C@H](O)[C@H]7O[C@@H]7O[C@H](COC(=O)C[C@](C)(O)CC(=O)O[C@@H]1[C@@H](O[C@@H]1OC[C@@H](O)[C@H](O)[C@H]1O)[C@H]2O)[C@@H](O)[C@H](O)[C@H]7O)[C@@](C)(CO)[C@@H]6CC[C@@]5(C)[C@]3(C)C[C@H]4O
- LD50 [2]: 15 mg/kg

Compound: C[C@@H]1O[C@H]2O[C@H]3[C@@H](OC[C@H](O)[C@@H]3O)OC(=O)[C@]34CCC(C)(C)C[C@H]3C3=CC[C@@H]5[C@@]6(C)C[C@H](O)[C@H](O[C@@H]7O[C@H](CO)[C@@H](O)[C@H](O)[C@H]7O[C@@H]7OC[C@H](OC(=O)C[C@](C)(O)CC(=O)O[C@@H]1[C@@H](O[C@@H]1OC[C@@H](O)[C@H](O)[C@H]1O)[C@H]2O)[C@H](O)[C@H]7O)[C@@](C)(CO)[C@@H]6CC[C@@]5(C)[C@]3(C)CC4
- IC50 [3]: 23.3 µM
- IC50 [4]: 12 µM
- beta t1/2 [5]: 6.7 h
- Vbeta [6]: 0.106 L/kg
- bioavailability [7]: 0.23%
- Cmax [8]: 675 ng/mL
- Tmax [9]: 2.75 h
- Cmax [10]: 1342 ng/mL
- Tmax [11]: 2.85 h
- t1/2 [12]: 4.6 h
- AUC(0-t) at 24 h [13]: 8800 ng·h/mL
- AUC [14]: 9900 ng·h/mL
- MRT last [15]: 7.02 h
- MRT inf [16]: 9.16 h
- half-life [17]: 2.3 h
- half-life [18]: 6.8 h
- bioavailability [19]: 1%
- IC50 [20]: 10 µM
- IC50 [21]: 20 µM
- IC50 [22]: 25 µM
- IC50 [23]: 20 µM
- IC50 [24]: 12.3 µM
- IC50 [25]: 10.2 µM
- IC50 [26]: 15.7 µM
- IC50 [27]: 14.2 µM
- IC50 [28]: 13.3 µM
- IC50 [29]: 34.8 µM
- IC50 [30]: 27.1 µM
- IC50 [31]: 17.1 µM
- IC50 [32]: 15.5 to 20 µM
- IC50 [33]: 16 µM
- IC50 [34]: 20 µM
- IC50 [35]: 45 µM
- IC50 [36]: 35 µM
- IC50 [37]: 8.5 µM
- IC50 [38]: 24.2 µM
- IC50 [39]: 21.4 µM
- IC50 [40]: 17.9 µM
- IC50 [41]: 10 µM
- IC50 [42]: 3 µM
- IC50 [43]: 6 µM
- IC50 [44]: 12 µM
- Activity [45]: 58.4%
- LD50 [2]: 18.7 mg/kg
